Experiments:
STING CTD = STING CTD (Homo sapiens, UniProt Q86WV6); test: Thermal shift assay with STING CTD; type: binding; conditions: 0.1 mg/mL STING CTD, compound 2 mM to 0.05 uM, SYPRO Orange, 25-80° C.
Method: Thermal shift assay was conducted with 0.1 mg/mL of STING CTD with various dilutions of compound 1 from 2 mM to 0.05 uM in 10 mM HEPES (pH 7.5), 140 mM NaCl and a 5 fold dilution of SYPRO Orange dye (Invitrogen). The fluorescence signal as a function of temperature was recorded using a Real Time PCR machine (Thermo Fisher). The temperature gradient was performed in the range of 25−80° C. with a ramp of 0.2° C. over the course of 60 min. Data were analyzed with the Thermal Shift Software (Thermo Fisher), DSF analysis, and the Derivative model was used to fit the fluorescence data to obtain the midpoint temperature for the thermal protein unfolding transition (Tm) using the curve-fitting software Prism.

[1] = target: T1, HAQ isoform human STING (hSTING) (Homo sapiens, UniProt Q86WV6, G230A/H232R/R293Q/R71H); test: THP1 dual reporter assay (ISRE-inducible Lucia, NF-κB inducible SEAP); type: cell-based; conditions: THP1 cells naturally expressing HAQ hSTING, 20 h incubation, vs DMSO-treated sample; for ISRE (IRF) reporter activity, induction: QUANTI-luc
T1 construct: THP1 cells naturally expressing HAQ isoform human STING (hSTING); endogenous in cells; host or cells: THP1 cells stably transfected with ISRE-inducible Lucia and NF-κB inducible SEAP reporters
Method: (§1) THP1 cells naturally expressing HAQ isoform human STING (hSTING), stably transfected with an ISRE-inducible Lucia and NF-κB inducible SEAP were treated with various concentrations of Cmd 1 or DMSO control. After 20 h incubation, levels of Lucia and SEAP were measured using QUANTI-luc and QUANTI-Blue to measure and ISRE and NF-κB reporter activity respectively. Percent induction was calculated from fold change in activity compared to DMSO-treated sample.
as §1, with “sample. EC50 values were generated by curve fit in Xlfit.” for “sample.”
as §1, with “Cmd 2” for “Cmd 1”, “reporter activity, respectively, in Xlfit.” for “reporter activity respectively.”
as §1, with “Cmd 2” for “Cmd 1”, “reporter activity, respectively, in Xlfit.” for “reporter activity respectively.”, “sample. EC50 values were generated by curve fit.” for “sample.”

mouse STING = target: T2, mouse STING (Mus musculus, UniProt Q3TBT3); test: RAW macrophage ISRE-inducible Lucia reporter assay; type: cell-based; conditions: mouse derived RAW macrophages, 20 h incubation, QUANTI-luc, vs DMSO-treated sample
T2 construct: Mouse derived RAW macrophages stably transfected with an ISRE-inducible Lucia; endogenous in cells; host or cells: Mouse derived RAW macrophages stably transfected with an ISRE-inducible Lucia reporter
T2 sequence (Q3TBT3 1-378): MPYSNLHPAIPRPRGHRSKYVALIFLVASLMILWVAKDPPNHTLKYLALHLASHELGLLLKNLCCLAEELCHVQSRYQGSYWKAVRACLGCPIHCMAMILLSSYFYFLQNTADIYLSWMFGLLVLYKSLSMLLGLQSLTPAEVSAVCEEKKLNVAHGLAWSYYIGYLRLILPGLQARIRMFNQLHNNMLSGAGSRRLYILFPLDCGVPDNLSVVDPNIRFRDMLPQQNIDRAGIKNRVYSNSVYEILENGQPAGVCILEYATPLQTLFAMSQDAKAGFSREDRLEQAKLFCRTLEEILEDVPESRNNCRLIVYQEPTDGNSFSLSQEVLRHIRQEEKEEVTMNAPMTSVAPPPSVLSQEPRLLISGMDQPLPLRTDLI
Method: (§2) Mouse derived RAW macrophages stably transfected with an ISRE-inducible Lucia were treated with various concentrations of compound 1 or DMSO control. After 20 h incubation, levels of Lucia were measured using QUANTI-luc to measure and ISRE reporter activity. Percent induction was calculated from fold change in activity compared to DMSO-treated sample.
as §2, with “sample. EC50 values were generated by curve fit in Xlfit.” for “sample.”
as §2, with “2” for “1”
Mouse derived RAW macrophages stably transfected with an ISRE-inducible Lucia were treated with various concentrations of compound 2 or DMSO control. After 20 h incubation, levels of Lucia were measured using QUANTI-luc to measure and ISRE reporter activity. […]

T1 sequence (Q86WV6 whole entry R71H/G230A/H232R/R293Q, canonical isoform): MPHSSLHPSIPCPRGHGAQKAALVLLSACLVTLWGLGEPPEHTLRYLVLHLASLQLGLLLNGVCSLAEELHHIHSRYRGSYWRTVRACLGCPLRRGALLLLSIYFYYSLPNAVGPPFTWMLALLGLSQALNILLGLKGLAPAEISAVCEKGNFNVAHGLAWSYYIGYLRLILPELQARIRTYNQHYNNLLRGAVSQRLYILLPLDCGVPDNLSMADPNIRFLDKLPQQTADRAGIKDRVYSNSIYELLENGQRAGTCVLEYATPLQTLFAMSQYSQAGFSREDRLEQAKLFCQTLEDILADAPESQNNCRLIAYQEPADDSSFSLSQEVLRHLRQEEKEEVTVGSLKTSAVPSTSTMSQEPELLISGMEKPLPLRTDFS
STING CTD, sequence (Q86WV6 135-379 limits assumed): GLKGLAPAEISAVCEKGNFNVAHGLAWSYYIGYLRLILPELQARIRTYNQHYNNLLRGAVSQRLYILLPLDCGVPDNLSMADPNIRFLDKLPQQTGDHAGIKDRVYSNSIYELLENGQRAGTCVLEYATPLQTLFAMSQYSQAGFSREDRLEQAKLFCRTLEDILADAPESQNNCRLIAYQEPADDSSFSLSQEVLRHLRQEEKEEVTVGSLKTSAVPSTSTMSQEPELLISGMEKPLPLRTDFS

Nc1ncnc2c1ncn2[C@@H]1O[C@@H]2COP(=O)(S)O[C@@H]3[C@H](F)[C@@H](COP(=O)(O)O[C@@H]1[C@@H]2F)O[C@H]3n1ccc(=O)[nH]c1=O (stereo partly drawn) [compound 1]
Binding to STING (thermal shift, Tm) (STING CTD): binds to STING with high affinity | ISRE (IRF) reporter activity, induction [1]: activates natural allelic variant HAQ to induce IRF | ISRE (IRF) reporter activity, induction (mouse STING): activates mouse STING to induce IRF in RAW macrophages

CCCCCCCCCCOc1ccc(C(=O)Oc2ccc(CSP3(=O)OC[C@H]4O[C@@H](n5cnc6c(N)ncnc65)[C@H](OP(=O)(O)OC[C@H]5O[C@@H](n6ccc(=O)[nH]c6=O)[C@H](O3)[C@@H]5F)[C@@H]4F)cc2)cc1 (stereo partly drawn) [compound 2]
NF-κB reporter activity, induction ([1]; QUANTI-Blue (SEAP)): activates natural allelic variant HAQ to induce IRF and NF-κB | ISRE (IRF) reporter activity, induction [1]: activates natural allelic variant HAQ to induce IRF | ISRE (IRF) reporter activity, induction (mouse STING): activates mouse STING to induce IRF in RAW macrophages
